Measurements: patent US20220204497A1, “NOVEL COMPOUND HAVING ANTICANCER ACTIVITY, AND METHOD FOR PRODUCING SAME” (MEDICINAL BIOCONVERGENCE RESEARCH CENTER, priority 2019, published 2022)

Key:
AIMP2-DX2 = biological target: T1, AIMP2-DX2 (Homo sapiens, UniProt Q13155); test: DX2-nanoluciferase assay (DX2 expression change) in transfected A549 cells; details: A549, 4 h, read-out: DX-Nanoluciferase activity (40 μM), 40 μM, 4 hours treatment, A549 cells transfected with nanoluciferase-DX2; inhibitory effect on AIMP2-DX2 expression
T1 sequence (Q13155 1-251 isoform Q13155-2): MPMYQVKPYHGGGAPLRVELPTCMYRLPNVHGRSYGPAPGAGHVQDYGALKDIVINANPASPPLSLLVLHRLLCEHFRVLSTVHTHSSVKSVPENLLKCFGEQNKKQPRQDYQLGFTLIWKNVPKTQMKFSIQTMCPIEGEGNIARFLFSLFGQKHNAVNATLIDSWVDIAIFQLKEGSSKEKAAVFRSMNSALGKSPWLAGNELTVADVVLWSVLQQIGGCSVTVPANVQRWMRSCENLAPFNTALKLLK
Description: After cloning DX2 into a plasmid expressing nanoluciferase, the plasmid was transfected into A549 cells. Transfected cells were seeded 1×10^4 per well in a 96-well plate and stabilized for 12 hours. […] Cell viability was measured by the MTT method after 72 hours of treatment with each concentration of the compound in A549 cells.

A549 cells = test: Cell viability by MTT method in A549 cells; type: cell-based; design: concentration or dose not given beside the values; details: 72 hours treatment
H460 cells = test: In vivo cancer growth inhibition in H460 xenograft animal model; design: species or system BALB/cAnCr female rats; details: 50 mg/kg intraperitoneally once every 2 days, 16 days
Description: FIG. 4 is a result of testing the cancer cell growth inhibitory effect of compound No. 55 and compound No. 89 among the compounds of the Formula 1 according to the present invention and the tumor distribution of the drug in the H460 xenograft animal model. Taxol was used as a positive control.
H460 cells (2×10^7) were subcutaneously implanted in 7-week-old BALB/cAnCr female […], and then Compound No. 55 or Compound No. 89 (50 mg/kg) and Taxol (10 mg/kg) were administered intraperitoneally once every 2 days. The drug was administered for 16 days, and the size of the tumor and the weight of the animal were measured during administration. After 16 days, the animals were sacrificed and the size and weight of the removed tumors were measured.

SMILES: COc1ccc(-c2csc(NC(=O)[C@H](CC(C)C)NS(=O)(=O)c3ccc(C)cc3)n2)cc1 [Compound 55, (S)—N-(4-(4-methoxyphenyl)thiazol-2-yl)-4-methyl-2-(4-methylphenylsulfonamido)pentanamide]
- inhibition at 40 µM (AIMP2-DX2): 70.3 ± 3.23%
- Cell Viability (% inhibition) (A549) (A549 cells): 89.25 ± 2.03%
- body weight of the animal during treatment (side effect) (H460 cells): no change in the body weight
- cancer growth inhibitory effect (H460 cells; H460 xenograft): about 50%
